Laboratory results from US8497278B2, “Imidazo[1,2-a]pyridine compounds” (priority 2008, dated 2013).

What was measured:
[1] = test system: Wistar rats; assay: Vogel conflict test; type: in vivo; conditions: rat, 60 min before test, 3 minute test
Procedure: Vogel Conflict Test Protocol: The Vogel conflict test is an animal model of anxiety described by Vogel et al. (1971). In this test, water deprived animals are placed in a cage with free access to a drinking bottle. Whenever the animal drinks, an electric shock is administered. Animals punished during drinking rapidly cease to drink. Anxiolytic drugs decrease the effect of punishment and increase the number of shocks accepted by the rats in this conflict situation. Male Wistar rats were used in these studies. Rats were deprived of water for approximately 48 hours and then placed individually into a transparent Plexiglas enclosure with a floor consisting of stainless steel bars spaced 1 cm apart. The back wall of the enclosure was made of opaque Plexiglas thereby concealing the observer from the experimental animal. In the center of the opposite wall, 5 cm above the floor, a metal water spout protruded into the cage and was connected to one pole of a shock generator. The other pole of the shock generator was connected to the metal grid floor. The rat is left to explore until it finds the water spout. Then, every time it drinks, it receives an electric shock (1.7 mA, 1 sec duration) 2 seconds after it starts drinking The number of punished drinks is counted during a 3 minute test. Ten rats are studied per treatment group. Clobazam (64 mg/kg) was used as the positive control. Compounds of the present invention, vehicle (45% hydroxypropyl beta-cyclodextrin) and clobazam were administered orally to all groups (n=10 […] per group) 60 minutes prior to behavioral testing. All data were analyzed using unpaired Student's t-tests. An effect was considered significance if p<0.05.

[2] = test system: Swiss Webster (CFW) mice; assay: Four Plate Test (FPT); type: in vivo; conditions: mouse, 30 min before test, 2 min session
Text: Four Plate Test (FPT) Protocol: The four plate test (FPT) is an animal model of anxiety in which simple ongoing behavior (exploration of novel surroundings) is suppressed by the delivery of mild electric foot-shock contingent to quadrant crossing (Aron, et al., 1971). Clinically effective classes of anxiolytic compounds such as benzodiazepines, selective serotonin reuptake inhibitors, or 5-HT1A receptor agonists produce a marked anti-punishment effect (an increase in punished crossings), which is thought to indicate anxiolytic activity (Aron, et al., 1971; Bourin, et al., 1992; Hascoet, et al., 2000; Ring, et al., 2006). The four plate apparatus (Bioseb, Chaville France) consists of a cage (18×25×16 cm) floored by four identical rectangular metal plates (8×11 cm) separated from one another by a gap of 4 mm. The plates are connected to a shocker unit that can generate electric foot shocks.
Male Swiss Webster (CFW) mice from Charles River (Wilmington, Mass.) were used for the FPT. Mice were received at 3-weeks of age. Upon receipt, mice were assigned unique identification numbers (tail marked) and were group housed with 4 mice per cage in mouse ventilated racks. All animals remained housed in groups of four during the remainder of the study. All mice were acclimated to the colony room for at least one week prior to testing and were subsequently tested at an average age of 4 weeks of age. During the period of acclimation, mice […] were examined on a regular basis, handled, and weighed to assure adequate healtH, D and suitability. Animals were maintained on a 12/12 light/dark cycle. The room temperature was maintained between 20 and 23° C. with a relative humidity maintained between 30% and 70%. Chow and water were provided ad libitum for the duration of the study. In each test, animals were randomly assigned across treatment groups. Alprazolam (0.3 mg/kg) was used as the positive control. Compounds of the present invention, vehicle (45% hydroxypropyl beta-cyclodextrin) and alprazolam were administered orally to all groups (n=10 mice per group) 30 minutes prior to behavioral testing. Following pretreatment, mice were gently placed in the four plate chamber and allowed to explore the enclosure for 18 seconds. After the exploration period, every time the mouse crossed from one plate to another, the experimenter, blind to the dosing conditions, administered a mild electric foot-shock, and referred to as a punished crossing. The intensity and duration of the foot-shock were 0.5 mA for 0.5 seconds. The number of punished crossings was recorded during the 2 min test session. The plates were thoroughly cleaned with 70% ethanol immediately after each mouse. All data were analyzed using an analysis of variance (ANOVA) followed by Fisher's PLSD post hoc test. An effect was considered significance if p<0.05. Statistical outliers above or below 2 standard deviations from the mean in any of the […] were removed from the final analysis.

[3] = molecular target: T1, α2 subtype containing GABA-A receptors (Homo sapiens, UniProt P18507+P47869); assay: Two-electrode voltage clamp electrophysiology in Xenopus oocytes, potentiation of GABA EC20 response, α2; type: cell-based; conditions: 100 nM compound; for activation at 0.1 µM: read-out: Percentage of potentiation alpha2
T1 construct: expressed in transfected cells; host or cells: Xenopus laevis oocytes, cRNA injected
T1 sequence (P47869 29-451): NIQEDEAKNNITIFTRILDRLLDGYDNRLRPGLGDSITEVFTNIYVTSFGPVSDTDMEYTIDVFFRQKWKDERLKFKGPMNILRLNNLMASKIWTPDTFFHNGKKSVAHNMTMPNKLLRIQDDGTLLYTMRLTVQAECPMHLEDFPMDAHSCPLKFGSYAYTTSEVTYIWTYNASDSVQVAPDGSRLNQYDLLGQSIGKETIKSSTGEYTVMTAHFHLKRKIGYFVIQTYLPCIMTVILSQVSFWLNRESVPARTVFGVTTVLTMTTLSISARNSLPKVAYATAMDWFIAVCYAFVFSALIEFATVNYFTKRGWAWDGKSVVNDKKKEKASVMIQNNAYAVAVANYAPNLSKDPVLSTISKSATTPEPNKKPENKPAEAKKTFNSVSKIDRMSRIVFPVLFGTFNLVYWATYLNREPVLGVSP
T1 sequence (P28472 26-473 partner): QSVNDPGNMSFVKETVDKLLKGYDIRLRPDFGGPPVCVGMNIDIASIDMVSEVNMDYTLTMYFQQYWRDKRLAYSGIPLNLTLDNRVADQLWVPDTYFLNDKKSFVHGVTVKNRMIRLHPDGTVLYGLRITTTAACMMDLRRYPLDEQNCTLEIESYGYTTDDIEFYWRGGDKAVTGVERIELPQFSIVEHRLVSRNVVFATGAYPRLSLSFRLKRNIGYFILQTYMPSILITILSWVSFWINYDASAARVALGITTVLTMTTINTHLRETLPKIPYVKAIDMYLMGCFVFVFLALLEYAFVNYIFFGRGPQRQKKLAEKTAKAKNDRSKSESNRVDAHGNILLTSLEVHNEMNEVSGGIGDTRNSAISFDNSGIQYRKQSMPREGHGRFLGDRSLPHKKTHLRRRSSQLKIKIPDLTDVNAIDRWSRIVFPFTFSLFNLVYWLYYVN
T1 sequence (P18507 40-475): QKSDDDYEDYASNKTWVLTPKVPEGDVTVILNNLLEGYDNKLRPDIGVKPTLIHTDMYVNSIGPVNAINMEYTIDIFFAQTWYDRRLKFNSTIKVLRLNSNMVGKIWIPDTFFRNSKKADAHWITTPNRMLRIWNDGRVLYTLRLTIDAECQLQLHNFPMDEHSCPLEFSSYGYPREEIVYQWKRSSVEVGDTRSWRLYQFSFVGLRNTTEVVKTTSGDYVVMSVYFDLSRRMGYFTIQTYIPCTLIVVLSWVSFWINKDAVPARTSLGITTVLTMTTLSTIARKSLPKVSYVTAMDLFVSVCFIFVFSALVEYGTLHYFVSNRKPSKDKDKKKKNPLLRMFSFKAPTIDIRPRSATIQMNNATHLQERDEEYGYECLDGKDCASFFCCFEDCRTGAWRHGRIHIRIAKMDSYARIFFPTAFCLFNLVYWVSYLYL
How it was run: (§1)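 Xenopus oocytes expressing human α1, α2, α3 or α5 with β3 and γ2L subunits were voltage-clamped at −80 mV in ND96, pH 7.5. Potentiation of the GABA EC20 (60 μM) response by test compounds at 100 nM was measured, with one compound per oocyte. Oocytes showing low current or poor γ2L incorporation, judged by 1 μM chlordiazepoxide response, were excluded.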

[4] = molecular target: T2, α1 subtype containing GABA-A receptors (Homo sapiens, UniProt P14867+P18507); assay: Two-electrode voltage clamp electrophysiology in Xenopus oocytes, potentiation of GABA EC20 response, α1; type: cell-based; conditions: 100 nM compound; for activation at 0.1 µM: read-out: Percentage of potentiation alpha1
T2 construct: expressed in transfected cells; host or cells: Xenopus laevis oocytes, cRNA injected
T2 sequence (P14867 28-456): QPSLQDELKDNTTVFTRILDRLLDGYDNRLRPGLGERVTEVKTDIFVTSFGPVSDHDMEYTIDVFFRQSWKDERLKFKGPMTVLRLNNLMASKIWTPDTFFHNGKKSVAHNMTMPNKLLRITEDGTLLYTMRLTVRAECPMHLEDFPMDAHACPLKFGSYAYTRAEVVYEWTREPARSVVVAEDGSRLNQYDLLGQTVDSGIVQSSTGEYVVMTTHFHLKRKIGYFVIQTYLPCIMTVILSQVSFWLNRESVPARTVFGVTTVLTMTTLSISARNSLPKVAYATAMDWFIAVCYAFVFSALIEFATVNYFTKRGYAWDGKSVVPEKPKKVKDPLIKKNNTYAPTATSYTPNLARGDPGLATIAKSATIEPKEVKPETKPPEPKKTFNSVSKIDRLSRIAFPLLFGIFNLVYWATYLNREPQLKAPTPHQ
T2 sequence (P28472 26-473 partner): as the sequence (P28472 26-473 partner) above
T2 sequence (P18507 40-475): as the sequence (P18507 40-475) above
How it was run: as §1

| Compound | Number of Shocks Mean ± S.E.M. ([1]; 3 mg/kg PO) | Number of Shocks Mean ± S.E.M. ([1]; 10 mg/kg PO) | Number of Shocks Mean ± S.E.M. ([1]; 30 mg/kg PO) | Number of Punished Crossings Mean ± S.E.M. ([2]; 3 mg/kg PO) | Number of Punished Crossings Mean ± S.E.M. ([2]; 10 mg/kg PO) | Number of Punished Crossings Mean ± S.E.M. ([2]; 30 mg/kg PO) | activation at 0.1 µM [3] | activation at 0.1 µM [4] | Percentage of potentiation alpha2 [3] | Percentage of potentiation alpha1 [4] |
| --- | --- | --- | --- | --- | --- | --- | --- | --- | --- | --- |
| Cn1ncnc1Cc1c(-c2ccc(F)cc2)nc2ccc(F)cn12 [Compound 200, 6-fluoro-2-(4-fluorophenyl)-3-((1-methyl-1H-1,2,4-triazol-5-yl)methyl)imidazo[1,2-a]pyridine] | 8.4 ± 2.1 | 8.9 ± 2.3 | 9.5 ± 2.1 | 7.2 ± 0.52 | 8.6 ± 0.43 | 7.5 ± 0.39 | ≥ 50% | 10 to 50% |  |  |
| CNC(=O)c1nccn1Cc1c(-c2ccc(Cl)cc2)nc2ccccn12 [Compound 77, 1-((2-(4-chlorophenyl)H-imidazo[1,2-a]pyridin-3-yl)methyl)-N-methyl-1H-imidazole-2-carboxamide] |  |  |  | 4.3 ± 0.26 | 4.6 ± 0.31 | 5.0 ± 0.37 |  |  | + (percentage of potentiation is greater than or equal to 10% but less than 50% in the presence of 100 nM of the compound) | 0 (percentage of potentiation is between about 10% to about −10%) |
| NC(=O)c1ncn(Cc2c(-c3ccc(Cl)cc3)nc3ccccn23)n1 [Compound 72, 1-((2-(4-chlorophenyl)imidazo[1,2-a]pyridin-3-yl)methyl)-1H-1,2,4-triazole-3-carboxamide] |  |  |  | 5.8 ± 0.63 | 5.2 ± 0.47 | 4.8 ± 0.36 | ≥ 50% | 10 to 50% |  |  |
| Clc1ccc(-c2nc3cccnn3c2Cn2cncn2)cc1 [Compound 32, 3-((1H-1,2,4-triazol-1-yl)methyl)-2-(4-chlorophenyl)imidazo[1,2-b]pyridazine] | 3.8 ± 0.6 | 3.8 ± 0.7 | 6.6 ± 2.3 | 6.6 ± 0.72 | 6.6 ± 0.67 | 5.7 ± 0.94 | 10 to 50% | 10 to 50% |  |  |
| Cc1ccn(Cc2c(-c3ccc(Cl)cc3)nc3ccccn23)c(=O)n1 [Compound 105, 1-((2-(4-chlorophenyl)imidazo[1,2-a]pyridin-3-yl)methyl)-4-methylpyrimidin-2(1H)-one] | 5.1 ± 0.6 | 5.8 ± 0.8 | 8.2 ± 1.8 | 6.7 ± 0.34 | 5.5 ± 0.60 | 5.6 ± 0.52 | 10 to 50% | 10 to 50% |  |  |
| Clc1ccc(-c2nc3ccccn3c2Cc2ncn[nH]2)cc1 [Compound 211, 3-((1H-1,2,4-triazol-5-yl)methyl)-2-(4-chlorophenyl)imidazo[1,2-a]pyridine] | 3.9 ± 0.5 | 5.3 ± 0.8 | 5.0 ± 1.1 | 7.8 ± 0.59 | 8.6 ± 0.85 | 8.9 ± 0.57 | ≥ 50% | 10 to 50% |  |  |
